Laboratory results published in US10517889B2, “Modulators of SMAD7 expression” (Ionis Pharmaceuticals, Inc., priority 2017, dated 2019).
Strand notation (5' to 3'): a small letter for the sugar, then the base; units joined by * are phosphorothioate-linked, units joined directly phosphodiester-linked; [ ] holds rarer units or linkages, { } end groups; capitals alone tell only the bases. k = constrained ethyl (cEt); [5mC] = 5-methylcytosine; d = 2'-deoxy (DNA)

Each substance was assayed on human SMAD7 mRNA (assay: Antisense inhibition of human SMAD7 mRNA expression in Hep3B cells by 3-10-3 cEt gapmers, 10,000 nM, electroporation (Example 2)). Conditions: Hep3B cells, 10,000 nM antisense oligonucleotide, electroporation, approximately 24 hours, RT-PCR primer probe set RTS5062, relative to untreated control cells.
Format: cell-based
Outline: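 Hep3B, 20,000 cells/well; electroporation, 10,000 nM ASO; ~24 h. Readout: SMAD7 mRNA by qRT-PCR (RTS5062), RIBOGREEN-normalised; % inhibition vs untreated.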

Row | Substance | % Inhibition [%]
1 | 800037 (k[5mC]*kA*k[5mC]*d[5mC]*dA*dG*d[5mC]*dA*dG*d[5mC]*d[5mC]*dT*d[5mC]*kT*kG*kT; antisense) [compound 800037] | 0
2 | 799853 (k[5mC]*k[5mC]*kA*dA*dG*dT*dG*dT*d[5mC]*d[5mC]*dA*dT*d[5mC]*kA*kA*kG; antisense) [compound 799853] | 42
3 | 799918 (antisense k[5mC]*kA*kT*dT*dT*dA*dT*d[5mC]*dT*d[5mC]*dG*d[5mC]*d[5mC]*kA*kT*kG) [compound 799918] | 16
4 | 799955 (antisense k[5mC]*kG*k[5mC]*dT*d[5mC]*dA*dG*dA*dA*dA*dA*dT*dG*k[5mC]*k[5mC]*k[5mC]) [compound 799955] | 50
5 | 800018 (kA*kA*kA*dA*d[5mC]*dT*d[5mC]*dA*d[5mC]*dA*dG*dT*d[5mC]*k[5mC]*kT*kT; antisense) [compound 800018] | 51
6 | 798855 (kT*kT*kG*dT*dA*d[5mC]*dA*d[5mC]*d[5mC]*d[5mC]*dA*d[5mC]*dA*k[5mC]*kA*k[5mC]; antisense) [compound 798855] | 11
7 | 799913 (antisense kG*kG*k[5mC]*d[5mC]*dT*d[5mC]*dA*dG*dA*dG*dG*dA*dA*kG*kG*kG) [compound 799913] | 18

Same assay, conditions: Hep3B cells, electroporation with 10,000 nM antisense oligonucleotide, approximately 24 hours, RTS5062, percent inhibition of SMAD7 mRNA relative to untreated control cells

Row | Substance | % Inhibition [%]
8 | 799647 (antisense kA*k[5mC]*kA*dG*dA*dA*dA*d[5mC]*dT*d[5mC]*d[5mC]*dA*dG*kA*kT*kG) [compound 799647] | 0
9 | 799847 (kT*kT*k[5mC]*d[5mC]*dA*d[5mC]*dT*dA*dT*dT*d[5mC]*dT*dA*kT*kG*kA; antisense) [compound 799847] | 30

Same assay, conditions: Hep3B cells, electroporation with 10,000 nM antisense oligonucleotide, approximately 24 hours, SMAD7 mRNA by RT-PCR (RTS5062), relative to untreated control cells

Row | Substance | % Inhibition [%]
10 | 799334 (k[5mC]*k[5mC]*kG*dT*dA*dG*dA*d[5mC]*d[5mC]*d[5mC]*d[5mC]*dT*dT*k[5mC]*kG*kG; antisense) [compound 799334] | 21
11 | 798716 (antisense k[5mC]*k[5mC]*kT*dG*d[5mC]*d[5mC]*d[5mC]*dG*dG*dG*d[5mC]*d[5mC]*dG*k[5mC]*k[5mC]*kG) [compound 798716] | 0
12 | 772642 (kT*kA*k[5mC]*d[5mC]*dG*dG*d[5mC]*dT*dG*dT*dT*dG*dA*kA*kG*kA; antisense) [compound 772642] | 0
13 | 799985 (kA*kA*k[5mC]*dA*dT*d[5mC]*dA*d[5mC]*d[5mC]*dA*d[5mC]*dG*d[5mC]*k[5mC]*kT*k[5mC]; antisense) [compound 799985] | 53
14 | 798702 (antisense k[5mC]*k[5mC]*k[5mC]*d[5mC]*dT*dT*d[5mC]*dT*d[5mC]*d[5mC]*d[5mC]*d[5mC]*dG*k[5mC]*kA*kG) [compound 798702] | 45
15 | 830056 (kG*kT*kT*dT*dT*dG*dG*dG*dT*dG*dA*dG*dT*kA*kA*k[5mC]; antisense) [compound 830056] | 40
16 | 798683 (antisense kG*k[5mC]*k[5mC]*dT*dG*d[5mC]*dT*dA*dA*dG*dG*dA*dG*k[5mC]*kG*kA) [compound 798683] | 51
17 | 799510 (antisense kG*kA*kG*dA*dA*dA*d[5mC]*dA*dG*dT*d[5mC]*dT*d[5mC]*k[5mC]*kA*k[5mC]) [compound 799510] | 57
18 | 830039 (antisense kT*kT*k[5mC]*d[5mC]*dT*dA*dT*dT*dG*dG*d[5mC]*dT*dG*kA*kT*k[5mC]) [compound 830039] | 51
19 | 799372 (antisense k[5mC]*k[5mC]*k[5mC]*dA*dT*d[5mC]*dT*dA*dT*d[5mC]*dG*dA*dA*kT*k[5mC]*kA) [compound 799372] | 67
20 | 830021 (antisense kG*kG*kG*dA*dA*dA*dG*dG*d[5mC]*d[5mC]*d[5mC]*dA*dA*k[5mC]*kA*kG) [compound 830021] | 42
21 | 798784 (kG*kA*kG*dT*d[5mC]*dG*dG*d[5mC]*dT*dA*dA*dG*dG*kT*kG*kA; antisense) [compound 798784] | 35
22 | 798898 (kA*kG*k[5mC]*dT*dG*d[5mC]*dT*dG*dA*dT*dG*dA*dA*k[5mC]*kT*kG; antisense) [compound 798898] | 2
23 | 830075 (kT*k[5mC]*kA*dG*dG*dG*dT*dG*dT*d[5mC]*dA*dG*d[5mC]*k[5mC]*k[5mC]*kA; antisense) [compound 830075] | 39
24 | 800044 (k[5mC]*k[5mC]*kT*dG*dA*dG*dA*dT*d[5mC]*dG*dA*dG*dG*kT*kG*k[5mC]; antisense) [compound 800044] | 18

Same assay, conditions: Hep3B cells, electroporation with 10,000 nM antisense oligonucleotide, approximately 24 hours, primer probe set RTS5062, relative to untreated control cells

Row | Substance | % Inhibition [%] | % inhibition of SMAD7 mRNA expression [%]
25 | 799223 (kA*kT*k[5mC]*dT*dT*dG*dT*dG*dT*dT*dT*dA*dT*k[5mC]*kT*kT; antisense) [compound 799223] | 0 | –
26 | 798982 (antisense k[5mC]*kT*kT*d[5mC]*dA*dT*dA*d[5mC]*dA*d[5mC]*dT*dG*dT*kG*kT*kT) [compound 798982] | 45 | –
27 | 799091 (antisense kA*k[5mC]*kT*dG*dG*dG*dT*dG*dA*dG*d[5mC]*dA*dA*kT*kA*k[5mC]) [compound 799091] | – | 42
28 | 799078 (antisense kA*kT*k[5mC]*d[5mC]*dA*dG*dG*dA*dG*d[5mC]*dA*dG*dA*kT*kG*kG) [compound 799078] | 19 | –
29 | 799002 (antisense kA*k[5mC]*kA*dG*d[5mC]*d[5mC]*dG*d[5mC]*dA*d[5mC]*dA*d[5mC]*dT*k[5mC]*kA*k[5mC]) [compound 799002] | 15 | –
30 | 799457 (antisense k[5mC]*kA*k[5mC]*dG*dA*dT*dA*dG*dT*d[5mC]*dT*d[5mC]*dA*kG*k[5mC]*kA) [compound 799457] | – | 62
31 | 799032 (kA*kG*kG*dT*dA*d[5mC]*dT*dG*d[5mC]*d[5mC]*dT*d[5mC]*dT*kG*k[5mC]*k[5mC]; antisense) [compound 799032] | – | 42
32 | 798991 (antisense k[5mC]*k[5mC]*kT*dG*dA*d[5mC]*dA*dA*dG*dT*dG*dA*dA*kA*kT*kG) [compound 798991] | – | 23
33 | 799161 (antisense k[5mC]*kA*kT*dA*d[5mC]*dG*dA*dG*dT*dG*dT*dA*dT*kG*kA*kG) [compound 799161] | 29 | –
34 | 799479 (antisense kT*kG*k[5mC]*d[5mC]*d[5mC]*dT*dT*d[5mC]*dT*dG*d[5mC]*dA*dG*kT*kG*kG) [compound 799479] | – | 24
35 | 799003 (antisense kA*k[5mC]*kA*d[5mC]*dA*dG*d[5mC]*d[5mC]*dG*d[5mC]*dA*d[5mC]*dA*k[5mC]*kT*k[5mC]) [compound 799003] | – | 0

Same assay, conditions: Hep3B cells, electroporation, 10,000 nM antisense oligonucleotide, approximately 24 hours, RTS5062, relative to untreated control cells

Row | Substance | % inhibition of SMAD7 mRNA expression [%]
36 | 799575 (k[5mC]*kA*k[5mC]*dA*dT*dT*d[5mC]*dA*dG*dG*dG*dT*dT*kT*kA*kA; antisense) [compound 799575] | 38
37 | 799678 (antisense k[5mC]*kA*k[5mC]*dA*dA*dG*d[5mC]*dA*d[5mC]*d[5mC]*dT*dG*dT*k[5mC]*k[5mC]*kA) [compound 799678] | 0
38 | 799579 (kA*kA*k[5mC]*d[5mC]*dT*dT*d[5mC]*d[5mC]*dG*dA*dA*dA*dG*kG*kA*k[5mC]; antisense) [compound 799579] | 51
39 | 799815 (antisense k[5mC]*kT*k[5mC]*dT*dT*dG*dA*dT*dG*dA*dT*d[5mC]*d[5mC]*kT*k[5mC]*kA) [compound 799815] | 68

Same assay, conditions: SMAD7 mRNA, Hep3B cells, 10,000 nM antisense oligonucleotide, electroporation, approximately 24 hours, primer probe set RTS5062, relative to untreated control cells

Row | Substance | % Inhibition [%]
40 | 790463 (kA*kT*kG*dA*dA*dG*dA*dA*dG*dT*d[5mC]*dG*dG*kG*k[5mC]*kG; antisense) [compound 790463] | 53

Same assay, conditions: SMAD7 mRNA, Hep3B cells, electroporation with 10,000 nM antisense oligonucleotide, approximately 24 hours, primer probe set RTS5062, relative to untreated control cells

Row | Substance | % Inhibition [%]
41 | 829872 (antisense kT*kG*kT*d[5mC]*d[5mC]*dA*dG*dT*dG*dT*dG*dG*d[5mC]*kG*kG*kA) [compound 829872] | 50
42 | 829903 (antisense k[5mC]*kT*kG*dT*dT*dG*dA*dA*dG*dA*dT*dG*dA*k[5mC]*k[5mC]*kT) [compound 829903] | 25
43 | 829886 (antisense kG*kT*kG*dG*dT*d[5mC]*dA*dT*dT*dG*dG*dG*d[5mC]*k[5mC]*kG*k[5mC]) [compound 829886] | 6
44 | 829931 (kA*kA*k[5mC]*dA*d[5mC]*d[5mC]*dA*dA*dT*d[5mC]*dT*dT*dG*kT*kG*kT; antisense) [compound 829931] | 0
45 | 829990 (kG*kG*kG*d[5mC]*d[5mC]*dG*d[5mC]*dG*dA*dG*dG*d[5mC]*dG*kG*kT*kG; antisense) [compound 829990] | 35
46 | 829912 (antisense kA*kA*k[5mC]*dG*dA*d[5mC]*d[5mC]*dA*dA*dA*dG*dA*dG*kT*kT*kT) [compound 829912] | 24
47 | 829885 (antisense k[5mC]*k[5mC]*kG*d[5mC]*dT*dG*d[5mC]*dA*dG*dG*d[5mC]*dT*dG*kT*kA*k[5mC]) [compound 829885] | 31
48 | 829849 (antisense kT*kG*kT*dT*dG*dT*d[5mC]*d[5mC]*dG*dA*dA*dT*dT*kG*kA*kG) [compound 829849] | 49
49 | 829975 (k[5mC]*kA*kA*dA*dA*dG*dA*dG*dG*d[5mC]*d[5mC]*dG*d[5mC]*k[5mC]*kT*kG; antisense) [compound 829975] | 32
